Assay: Whole body scintigraphy biodistribution after IV, IM, SC injection in dogs (Example 4)
Format: in vivo
Details: dog
Method: Three different studies were performed. In a first study, the biodistribution of intravenously administrated equine peripheral blood-derived MSCs (ePB-MSCs) was evaluated in four dogs. In the second study, the biodistribution of intramuscularly and subcutaneously administrated ePB-MSCs was evaluated in four dogs. Finally, in a third study, the biodistribution of a higher dose of ePB-MSCs following intravenous administration was evaluated in three dogs.
Four healthy adult research dogs were included in the two first studies; three dogs from the second study were re-used for the third study. All dogs were purpose bred adult beagles (16-23 months). Two males and two females were included in the first two studies and one male and two female dogs were included in the third study. The dogs were housed in groups of 2, in a pen of 4 by 4 by 2 m (L×W×H) so permanent visual, olfactorial, tactile and auditive contact between dogs was possible. Toys were provided for the dogs to play with in their pen. Cleaning of the dog pens was performed daily. The floor was covered with wood shavings to improve lying comfort for the dogs. The animals were let out in dog runs to play and run for minimal 1 hour a day. After the study this minimal time was increased depending on the need of the dogs.
In the first study, each dog received two intravenous injections; first the dogs were injected with the control product: freshly eluted ^99mTc dissolved in DMEM and at least 7 days later they received a second injection with ^99mTc-labeled ePB-MSCs. For the second study, 4 injections were administered to each dog. The dogs first received an IM injection with the control product, next a SC with the control product, then an IM injection with the ^99mTc-labeled ePB-MSCs and finally a SC administration of the ^99mTc-labeled ePB-MSCs. At least 7 days separated each injection. In the third study, the three dogs received a single IV injection with ^99mTc-labeled ePB-MSCs.
The dogs were put under general anesthesia and positioned in sternal recumbency on the gamma camera before each injection. To obtain general anesthesia, the dogs were first sedated with dexmedetomidine (12-25 μg/kg IM), next induction was obtained with propofol (dosage on effect) and anesthesia was maintained with isoflurane 1.2-1.4% (on effect) in 100% oxygen following endotracheal intubation. The intravenous injection was administered through a 22-gauge catheter in one of the cephalic veins, the intramuscular injection was performed in the left quadriceps muscle and the subcutaneous injection was administered at the back of the neck.
A two-headed gamma camera, equipped with low energy high resolution collimators (GCA 7200 A; Toshiba) was used for the scintigraphic investigation. The whole body scan was obtained with the detectors of the SPECT scanner moving simultaneous dorsally and ventrally from head to tail of the dog over 10 minutes. All dogs were kept under general anesthesia during all the acquisitions. For all 3 studies, data collection of the first hour consisted of 6 successive acquisitions of each 10 minutes. The start of the first acquisition was simultaneous with injection of the radioactive compound and the dog remained in the same position for all 6 scans. Next, in the first study, total body scans (each lasting 10 minutes) were performed at 2 h, 4 h, 8 h, 12 h, 24 h and 36 h after placebo control and labeled ePB-MSCs administration using propofol (dosage on effect). For the second and the third study, 6 successive 10 minutes' total body scans performed during the first hour after injection were followed by total body scans (each lasting 10 minutes) at 6 h and 24 h after each injection. For all studies, a syringe with a known amount of radioactivity to calculate % injected dose (ID), was simultaneous scanned with the dog. Care was taken for the dog's re-positioning on the table, to avoid too much spatial deviation on the scans following the first hour scans. […]

[O]=[99Tc](=[O])(=[O])[O-] [control product, ^99mTc Pertechnetate]
percentage of injected dose at injection site (IM, 10 min): 29.49%
percentage of injected dose in bladder (IM, 10 min): 0.13%
percentage of injected dose in heart (IM, 10 min): 0.45%
percentage of injected dose in left salivary gland (IM, 10 min): 0.02%
percentage of injected dose in lung (IM, 10 min): 1.06%
percentage of injected dose in right salivary gland (IM, 10 min): 0.01%
percentage of injected dose in stomach (IM, 10 min): 1.62%
percentage of injected dose in thyroid (IM, 10 min): 0.05%
percentage of injected dose at injection site (IM, 60 min): 3.63%
percentage of injected dose in bladder (IM, 60 min): 3.51%
percentage of injected dose in heart (IM, 60 min): 2.46%
percentage of injected dose in left salivary gland (IM, 60 min): 1.03%
percentage of injected dose in lung (IM, 60 min): 6.92%
percentage of injected dose in right salivary gland (IM, 60 min): 0.99%
percentage of injected dose in stomach (IM, 60 min): 17.36%
percentage of injected dose in thyroid (IM, 60 min): 1.10%
percentage of injected dose at injection site (IM, 6 hours): 0.19%
percentage of injected dose in bladder (IM, 6 hours): 4.77%
percentage of injected dose in heart (IM, 6 hours): 1.45%
percentage of injected dose in left salivary gland (IM, 6 hours): 1.84%
percentage of injected dose in lung (IM, 6 hours): 4.41%
percentage of injected dose in right salivary gland (IM, 6 hours): 1.60%
percentage of injected dose in stomach (IM, 6 hours): 17.25%
percentage of injected dose in thyroid (IM, 6 hours): 1.15%
percentage of injected dose at injection site (IM, 24 hours): 0.12%
percentage of injected dose in bladder (IM, 24 hours): 5.08%
percentage of injected dose in heart (IM, 24 hours): 0.69%
percentage of injected dose in left salivary gland (IM, 24 hours): 2.47%
percentage of injected dose in lung (IM, 24 hours): 2.14%
percentage of injected dose in right salivary gland (IM, 24 hours): 2.09%
percentage of injected dose in stomach (IM, 24 hours): 9.36%
percentage of injected dose in thyroid (IM, 24 hours): 0.57%
percentage of injected dose in bladder (IV, 10 min): 0.63%
percentage of injected dose in heart (IV, 10 min): 2.79%
percentage of injected dose in left salivary gland (IV, 10 min): 0.33%
percentage of injected dose in liver (IV, 10 min): 2.93%
percentage of injected dose in lung (IV, 10 min): 3.73%
percentage of injected dose in right salivary gland (IV, 10 min): 0.33%
percentage of injected dose in stomach (IV, 10 min): 4.84%
percentage of injected dose in thyroid (IV, 10 min): 0.41%
percentage of injected dose in bladder (IV, 60 min): 1.93%
percentage of injected dose in heart (IV, 60 min): 1.61%
percentage of injected dose in left salivary gland (IV, 60 min): 0.77%
percentage of injected dose in liver (IV, 60 min): 2.07%
percentage of injected dose in lung (IV, 60 min): 2.62%
percentage of injected dose in right salivary gland (IV, 60 min): 0.72%
percentage of injected dose in stomach (IV, 60 min): 9.77%
percentage of injected dose in thyroid (IV, 60 min): 0.61%
percentage of injected dose in bladder (IV, 6 hours): 2.42%
percentage of injected dose in heart (IV, 6 hours): 1.45%
percentage of injected dose in left salivary gland (IV, 6 hours): 1.31%
percentage of injected dose in liver (IV, 6 hours): 1.73%
percentage of injected dose in lung (IV, 6 hours): 1.97%
percentage of injected dose in right salivary gland (IV, 6 hours): 0.88%
percentage of injected dose in stomach (IV, 6 hours): 8.98%
percentage of injected dose in thyroid (IV, 6 hours): 0.61%
percentage of injected dose in bladder (IV, 24 hours): 2.71%
percentage of injected dose in heart (IV, 24 hours): 0.54%
percentage of injected dose in left salivary gland (IV, 24 hours): 1.34%
percentage of injected dose in liver (IV, 24 hours): 0.99%
percentage of injected dose in lung (IV, 24 hours): 0.77%
percentage of injected dose in right salivary gland (IV, 24 hours): 0.98%
percentage of injected dose in stomach (IV, 24 hours): 5.02%
percentage of injected dose in thyroid (IV, 24 hours): 0.24%
percentage of injected dose at injection site (SC, 10 min): 27.27%
percentage of injected dose in bladder (SC, 10 min): 0.13%
percentage of injected dose in heart (SC, 10 min): 0.24%
percentage of injected dose in left salivary gland (SC, 10 min): 0.12%
percentage of injected dose in lung (SC, 10 min): 0.92%
percentage of injected dose in right salivary gland (SC, 10 min): 0.13%
percentage of injected dose in stomach (SC, 10 min): 0.53%
percentage of injected dose in thyroid (SC, 10 min): 0.00%
percentage of injected dose at injection site (SC, 60 min): 17.57%
percentage of injected dose in bladder (SC, 60 min): 2.29%
percentage of injected dose in heart (SC, 60 min): 1.61%
percentage of injected dose in left salivary gland (SC, 60 min): 0.45%
percentage of injected dose in lung (SC, 60 min): 4.86%
percentage of injected dose in right salivary gland (SC, 60 min): 0.45%
percentage of injected dose in stomach (SC, 60 min): 9.24%
percentage of injected dose in thyroid (SC, 60 min): 0.00%
percentage of injected dose at injection site (SC, 6 hours): 0.00%
percentage of injected dose in bladder (SC, 6 hours): 2.75%
percentage of injected dose in heart (SC, 6 hours): 1.61%
percentage of injected dose in left salivary gland (SC, 6 hours): 1.44%
percentage of injected dose in lung (SC, 6 hours): 4.57%
percentage of injected dose in right salivary gland (SC, 6 hours): 1.33%
percentage of injected dose in stomach (SC, 6 hours): 14.37%
percentage of injected dose in thyroid (SC, 6 hours): 0.96%
percentage of injected dose at injection site (SC, 24 hours): 0.00%
percentage of injected dose in bladder (SC, 24 hours): 3.75%
percentage of injected dose in heart (SC, 24 hours): 0.70%
percentage of injected dose in left salivary gland (SC, 24 hours): 2.67%
percentage of injected dose in lung (SC, 24 hours): 2.01%
percentage of injected dose in right salivary gland (SC, 24 hours): 2.81%
percentage of injected dose in stomach (SC, 24 hours): 7.32%
percentage of injected dose in thyroid (SC, 24 hours): 0.61%
organ with the highest uptake (all three injection routes, progressive increase until 4 to 6 hours): stomach
organs with radioactivity uptake (intramuscular and subcutaneous administration): heart, lung, stomach, bladder, thyroid and salivary glands
organs in which radioactivity accumulated (intravenous injection): heart, lung, liver, stomach, bladder, thyroid and salivary glands
